Assays:
Oryctolagus cuniculus = species on record: Oryctolagus cuniculus; assay: Displacement of [3H]PAF from rabbit PAF receptor in isolated platelet plasma membrane at 10 uM; format: cell membranes
[1] = Displacement of [3H]PAF from rabbit PAF receptor in isolated platelet plasma membrane; format: cell membranes, Oryctolagus cuniculus

| Structure (SMILES) | Activity (Oryctolagus cuniculus) [%] | IC50 [1] [µM] | Ki [1] [µM] |
| --- | --- | --- | --- |
| C=CCC1=C[C@@]2(OC)[C@@H](C)[C@H](c3ccc(OC)c(OC)c3)[C@@H](C1=O)[C@@H]2OC(C)=O [PUBERULIN A] | 63 | 7.3 | 4.7 |
| C=CCC1=C[C@@]2(OC)[C@@H](C)[C@H](c3ccc4c(c3)OCO4)[C@@H](C1=O)[C@@H]2OC(C)=O [PUBERULIN B] | 43 | ≥ 10 | – |
| C=CC[C@]12C=C(OC)C(=O)[C@H]([C@@H](c3ccc(O)c(OC)c3)[C@@H]1C)[C@@H]2OC(C)=O [PUBERULIN C] | 66 | 5.7 | 3.7 |

Reference: ChEMBL document CHEMBL1159237, “The isolation and structural elucidation of three new neolignans, piperulins [corrected] A, B, and C, as platelet activating factor receptor antagonists from Piper puberulum” (J Nat Prod, 1995)
